Results reported in patent US20230069886A1, “AROMATIC SULPHONAMIDES DERIVATIVES THAT INHIBITS PDI A3, THEIR SYNTHESIS AND USE” (Uniwersytet Jagiellonski, priority 2020, published 2023).
Values after ≈ are worked out from the molar mass of the structure shown. Like-named read-outs stand apart in the source and are kept apart here. Values belong to the molecule of their own block, whether it stands above or below them.

Assays:
arterial thrombosis = assay: In vivo models of arterial thrombosis; parameters: species or system rat or mice; conditions: FIG. 5
Procedure: To confirm antithrombotic activity of compounds of invention, inhibitors of PDIA3, pharmacological activity of selected compounds was tested in vivo in the rat or mice model of arterial thrombosis. Wistar rats were anaesthetized with pentobarbital (40 mg/kg, i.p.) and placed in a supine position on a heated (37° C.) operating table. Arterial thrombosis was induced by electrical stimulation of the right common carotid artery, as previously described (Kramkowski et al., 2012). Briefly, the anode, a stainless steel L-shaped wire, was inserted under the artery and connected to a constant current generator. The cathode was attached subcutaneously to the hind limb. The artery was stimulated (1 mA) for 10 min. Fifty-five minutes after the beginning of stimulation, the segment of the common carotid artery containing the formed thrombus was dissected and opened lengthwise, and the thrombus was completely removed and air-dried at room temperature for 24 h. Thrombus was then weighed in a blinded manner. Antithrombotic effects of compounds of invention in mice was analyzed using intravital fluorescence confocal microscopy as described previously (Hayashi T et al., 2008). […] Changes in fluorescence intensity were measured as described previously (Hayashi T et al., 2008, Kramkowski et al., 2002)

HT-29 = assay: MTT antiproliferative assay, 72 h, HT-29; assay type: cell-based, human; conditions: Homo sapiens, HT-29, 72 hours exposition, read-out: IC50 [μg/ml] HT-29 normal
Procedure: Anticancer activity of selected compounds of invention, PDI A3-inhibitors has been also tested in vitro in antiproliferative assay in normoxic and hypoxic conditions as well in estrogen-stimulated cancer cells. In the experiment, cells were seeded on 96-well plates (Sarstedt, Germany) in appropriate culture medium at a density of 10^5 cells/mL 24 h before adding the tested compounds. Cells were treated with each compound in four concentrations in the range 0.1-100 μg/mL. […] After 72 h of compound treatment at 37° C., 5% CO2 humid atmosphere and in wo different oxygen level conditions: 21%—normal and <1%—hypoxia. In some experiments the MDA-MB-231 and MCF-7 cells were seeded with or without 200 nM estradiol and after 24 h the tested compounds were added. […] Briefly, cells were fixed with 50 μL/well of 50% (w/v) trichloroacetic acid (Avantor Performance Materials, Gliwice, Poland). After 1 h incubation, plates were washed several times with tap water and 50 μL of 0.4% (w/v) solution of sulforhodamine B (Sigma-Aldrich, Germany) in 1% (v/v) acetic acid (Avantor Performance Materials, Gliwice, Poland) was added to each well. After 30 min incubation at room temperature, unbound dye was washed out with 1% (v/v) acetic acid, whereas bound dye was solubilized with 10 mM unbuffered TRIS (Avantor Performance Materials, Gliwice, Poland) solution. The entire procedure was performed using a BioTek EL-406 washing station (BioTek Instruments, USA). After additional 30 min, absorbance was read using a Biotek Hybrid H4 reader (BioTek Instruments, USA) at 540 nm wavelength. […] Absorbance was measured using a Biotek Hybrid H4 reader at 570 nm wavelength for MTT assay.
(§1) Compounds at each concentration were tested in triplicate in a single experiment and each experiment was repeated at least three times independently. Results are presented as mean IC50±SD.

MCF-10A = assay: Selectivity index MCF-10A versus MCF-7; assay type: cell-based; conditions: 72 hours exposition
Procedure: (§2) Anticancer activity of selected compounds of invention, PDI A3-inhibitors has been also tested in vitro in antiproliferative assay in normoxic and hypoxic conditions as well in estrogen-stimulated cancer cells. In the experiment, cells were seeded on 96-well plates (Sarstedt, Germany) in appropriate culture medium at a density of 10^5 cells/mL 24 h before adding the tested compounds. Cells were treated with each compound in four concentrations in the range 0.1-100 μg/mL. […] After 72 h of compound treatment at 37° C., 5% CO2 humid atmosphere and in wo different oxygen level conditions: 21%—normal and <1%—hypoxia. In some experiments the MDA-MB-231 and MCF-7 cells were seeded with or without 200 nM estradiol and after 24 h the tested compounds were added. A previously described sulforhodamine B antiproliferative assay was used with minor modifications (Skehan P et al., 1990). Briefly, cells were fixed with 50 μL/well of 50% (w/v) trichloroacetic acid (Avantor Performance Materials, Gliwice, Poland). After 1 h incubation, plates were washed several times with tap water and 50 μL of 0.4% (w/v) solution of sulforhodamine B (Sigma-Aldrich, Germany) in 1% (v/v) acetic acid (Avantor Performance Materials, Gliwice, Poland) was added to each well. After 30 min incubation at room temperature, unbound dye was washed out with 1% (v/v) acetic acid, whereas bound dye was solubilized with 10 mM unbuffered TRIS (Avantor Performance Materials, Gliwice, Poland) solution. The entire procedure was performed using a BioTek EL-406 washing station (BioTek Instruments, USA). After additional 30 min, absorbance was read using a Biotek Hybrid H4 reader (BioTek Instruments, USA) at 540 nm wavelength. MTT assay was used alternatively for HL-60 cell line and in the experiment in which estrogens are added (specified in the table legend). Absorbance was measured using a Biotek Hybrid H4 reader at 570 nm wavelength for MTT assay.
Compounds at each concentration were tested in triplicate in a single experiment and each experiment was repeated at least three times independently. […]

HL-60 = assay: MTT antiproliferative assay, 72 h, HL-60; assay type: cell-based, human; conditions: Homo sapiens, HL-60, 72 hours exposition, read-out: IC50 [μg/ml] HL-60 normal
Procedure: as §2, §1

MCF-7 = assay: MTT antiproliferative assay, 72 h, with or without estradiol, MCF-7; assay type: cell-based, human; conditions: for IC50: Homo sapiens, MCF7, 72 hours exposition, MTT; for Lower sensitivity after treatment with estradiol in MCF-7: estradiol (200 nM), Table 4
Procedure: as §2, §1

MDA-MB-231 = assay: MTT antiproliferative assay, 72 h, with or without estradiol, MDA-MB-231; assay type: cell-based, human; conditions: for IC50: Homo sapiens, MDA-MB-231, 72 hours exposition, MTT; for Sensitivity of MDA-MB-231 line after treatment with estradiol: estradiol (200 nM), Table 4
Procedure: as §2, §1

human platelets = assay: Light transmission aggregometry of collagen-stimulated human platelet-rich plasma; assay type: cell-based; conditions: human PRP, FIG. 2, 3
Procedure: Anti-platelet activity of compounds of invention was assessed using light transmission aggregometry assay of human platelet-rich plasma (PRP). Venous blood was obtained from male volunteers at the University Hospital Blood Bank Centre. Volunteer donors had not taken any medicines for the preceding two weeks. Blood was collected into vials containing sodium citrate (3.2%, 9:1 v/v) as an anti-coagulant agent. To obtain platelet rich plasma (PRP), blood was centrifuged at 260×g for 15 min. The platelet […] plasma fraction (used as a blank sample) was obtained by centrifugation of the remaining blood for 10 min at 2600×g. Aggregation of blood platelets was assessed in PRP with a dual channel Chronolog aggregometer (CHRONO-LOG) using a method previously described by Born^35. PRP (500 μl) was equilibrated for 2 min at 37° C. with a continuous stirring at 800 rpm and then stimulated with collagen to cause aggregation. At the beginning of each experiment, concentrations of collagen that induced sub-maximum aggregation response were determined. These concentrations were in the range of […], respectively. All the tested compounds were added 2 min prior to stimulation of platelets with collagen. Transmittance was read 6 min after stimulation of platelets with an agonist. […]

[1] = tested on: MDA-MB-231 cell transmigration across IL-1β-stimulated hLMVECs; assay: Transendothelial migration of MDA-MB-231 cells across hLMVEC monolayer; assay type: cell-based, human; conditions: IL-1β 10 ng/mL (6 hours)-stimulated hLMVECs, 24 h co-culture, FIG. 6
Procedure: To assess whether compounds of invention, PDI A3-inhibitors are also effective as inhibitors of cancer cell transmigration through endothelium the transmigration assay with MDA-MB-231/lung microvascular endothelium was used as described previously (Stojak et al., 2018). Cell migration was assayed in 24-well, 6.5-mm internal-diameter Transwell plates (8.0 μm pore size; BD Pharmingen). Human lung microvascular endothelial cells (hLMVECs) were seeded into 24-well plates (seeding density 5×10^4 cells/insert) on the upper side of the filter and left to grow to confluence. After confluent monolayer formation, hLMVECs were pre-treated with 10 ng/mL IL-1β for 6 h. Prior to use in transmigration assay, cancer cells were pre-incubated with various concentrations (3, 10, 30, 50, 100 μM) of tested inhibitors of PDIA3, C-3390, C-3399 for 30 min. Then, MDA-MB-231 cells (each 5×10^4 per well) were placed into upper chambers and tested PDI inhibitors at various concentrations (1, 10, 30, 50, 100 μM) were given. Lower chambers were filled with medium containing chemoattractant (20% FBS or 100 ng/mL SDF-1α). After 24 h of co-culture, hLMVEC monolayers and non-migrating cancer cells on the upper surface of the membrane were removed. […] The cell number was determined by measuring the fluorescence using plate reader. […]

[2] = not pretreated with estradiol, read-out: IC50 [μg/ml] MCF-7 normal
[3] = pretreated with 200 nM estradiol, read-out: IC50 [μg/ml] MCF-7 +estradiol
[4] = not pretreated with estradiol, read-out: IC50 [μg/ml] MDA-MB-231 normal
[5] = pretreated with 200 nM estradiol, read-out: IC50 [μg/ml] MDA-MB-231 +estradiol

Structure (SMILES): COC(=O)C1CN1S(=O)(=O)c1ccc(N(C)C)cc1 (stereo not drawn) [Compound C-3343, Methyl 1-[4-(dimethylamino)phenyl]sulfonylaziridine-2-carboxylate]
Anti-thrombotic effects in vivo (arterial thrombosis): anti-thrombotic effects

IC50 (MCF-7; [3]): 3.4 ± 0.3 µg/mL (≈ 10.2 µM)
IC50 (MDA-MB-231; [5]): 7 ± 1.1 µg/mL (≈ 20.9 µM)
Structure (SMILES): COC(=O)C1CN1S(=O)(=O)c1cccc2cc(N(C)C)ccc12 (stereo not drawn) [Compound C-3375, Methyl 1-[[6-(dimethylamino)-1-naphthyl]sulfonyl]aziridine-2-carboxylate]
IC50 (HT-29): 27.8 ± 7.5 µg/mL (≈ 83.1 µM)
Selectivity index (SI): IC50 of MCF-10A/IC50 of MCF-7 (MCF-10A): 6.90
IC50 (HL-60): 3.3 ± 0.2 µg/mL (≈ 9.87 µM)
IC50 (MCF-7; [2]): 3.5 ± 0.4 µg/mL (≈ 10.5 µM)
Lower sensitivity after treatment with estradiol in MCF-7 (MCF-7): not observed
IC50 (MDA-MB-231; [4]): 3.8 ± 0.1 µg/mL (≈ 11.4 µM)
Sensitivity of MDA-MB-231 line after treatment with estradiol (MDA-MB-231): slightly lower sensitivity

IC50 (MCF-7; [3]): 4.3 ± 0.3 µg/mL (≈ 12.9 µM)
IC50 (MDA-MB-231; [5]): 6.4 ± 1.9 µg/mL (≈ 19.1 µM)
Structure (SMILES): COC(=O)C1CN1S(=O)(=O)c1ccc2c(N(C)C)cccc2c1 (stereo not drawn) [Compound C-3399, Methyl 1-[[5-(dimethylamino)-2-naphthyl]sulfonyl]aziridine-2-carboxylate]
IC50 (HT-29): 4.3 ± 0.2 µg/mL (≈ 12.9 µM)
Selectivity index (SI): IC50 of MCF-10A/IC50 of MCF-7 (MCF-10A): 1.6
Inhibition of platelet aggregation (human platelets): lowest EC50
Inhibition of MDA-MB-231 cell transmigration [1]: inhibited MDA-MB-231 cell transmigration
IC50 (HL-60): 2.4 ± 0.3 µg/mL (≈ 7.18 µM)
IC50 (MCF-7; [2]): 3.7 ± 0.3 µg/mL (≈ 11.1 µM)
Lower sensitivity after treatment with estradiol in MCF-7 (MCF-7): not observed
IC50 (MDA-MB-231; [4]): 2.9 ± 0.3 µg/mL (≈ 8.67 µM)
Sensitivity of MDA-MB-231 line after treatment with estradiol (MDA-MB-231): slightly lower sensitivity
